In patent publication US9642854B2, “Flavanoid compounds and process for preparation thereof” (Council of Scientific & Industrial Research, priority 2009, dated 2017):
≈ marks a conversion by molar mass, not a printed value. Where two headings read alike, the source gives them in different places.

Experiments:
[1] = system: H. pylori; assay: Anti H. pylori spectrum (MIC) by agar dilution method; type: cell-based, Helicobacter pylori; details: Helicobacter pylori; for MIC50: MIC against 50% of the strains of the panel, read-out: MIC50
In short: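 Agar dilution per CLSI against six clinical isolates and four standard strains on BHI agar with 7% FCS, 0.5% IsoVitalex and DENT. Inoculum ~10^8 CFU/mL; 2-fold compound dilutions from 1.56-100; 72 h microaerophilic at 37 °C. MIC read visually as no growth, in duplicate; MIC50 covers 50% of strains.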

[2] = system: H. pylori; assay: Time kill kinetic analyses in biphasic culture; type: cell-based, Helicobacter pylori
[3] = molecular target: T1, pig gastric H^+,K^+-ATPase (Sus scrofa, UniProt P19156); assay: Gastric H+,K+-ATPase activity assay; type: biochemical
T1 construct: tubulovesicular and apical membranes, isolated from freshly slaughtered pig gastric mucosa; from tissue; host or cells: pig gastric mucosa (membrane fraction by density gradient centrifugation)
T1 sequence (P19156 2-1034 limits assumed): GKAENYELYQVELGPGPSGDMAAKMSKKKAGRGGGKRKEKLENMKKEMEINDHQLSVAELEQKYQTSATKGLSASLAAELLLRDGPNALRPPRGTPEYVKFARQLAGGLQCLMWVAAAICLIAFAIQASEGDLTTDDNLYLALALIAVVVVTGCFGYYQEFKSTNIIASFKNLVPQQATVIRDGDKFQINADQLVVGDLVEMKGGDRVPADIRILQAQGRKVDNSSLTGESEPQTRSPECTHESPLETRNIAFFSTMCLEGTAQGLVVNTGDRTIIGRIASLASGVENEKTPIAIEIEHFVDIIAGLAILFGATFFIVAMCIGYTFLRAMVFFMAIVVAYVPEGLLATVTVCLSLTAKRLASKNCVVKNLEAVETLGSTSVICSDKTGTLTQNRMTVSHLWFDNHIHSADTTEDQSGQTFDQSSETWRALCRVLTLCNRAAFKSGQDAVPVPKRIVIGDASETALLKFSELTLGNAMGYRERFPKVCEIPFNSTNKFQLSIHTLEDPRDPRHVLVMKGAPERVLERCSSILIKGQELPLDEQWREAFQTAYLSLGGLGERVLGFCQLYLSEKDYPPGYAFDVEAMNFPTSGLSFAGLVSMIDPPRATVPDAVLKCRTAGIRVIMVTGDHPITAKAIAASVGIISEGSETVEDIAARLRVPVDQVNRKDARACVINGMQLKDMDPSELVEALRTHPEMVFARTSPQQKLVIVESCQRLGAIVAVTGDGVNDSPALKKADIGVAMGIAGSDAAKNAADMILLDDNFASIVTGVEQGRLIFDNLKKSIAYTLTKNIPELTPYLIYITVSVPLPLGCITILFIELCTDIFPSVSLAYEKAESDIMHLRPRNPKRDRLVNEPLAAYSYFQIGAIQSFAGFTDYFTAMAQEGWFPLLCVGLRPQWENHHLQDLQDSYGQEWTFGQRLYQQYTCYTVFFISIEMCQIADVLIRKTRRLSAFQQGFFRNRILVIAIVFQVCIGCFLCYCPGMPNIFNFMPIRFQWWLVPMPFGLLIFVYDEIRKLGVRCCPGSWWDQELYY
T1 sequence (P18434 whole entry partner): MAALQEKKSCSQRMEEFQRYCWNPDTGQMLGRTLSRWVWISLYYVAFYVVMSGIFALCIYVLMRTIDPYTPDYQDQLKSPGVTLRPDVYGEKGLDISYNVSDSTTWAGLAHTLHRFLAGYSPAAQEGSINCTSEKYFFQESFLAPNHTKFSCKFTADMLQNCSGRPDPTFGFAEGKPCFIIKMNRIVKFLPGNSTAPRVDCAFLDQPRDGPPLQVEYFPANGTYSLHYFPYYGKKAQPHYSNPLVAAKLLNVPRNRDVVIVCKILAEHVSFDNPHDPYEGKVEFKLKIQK
Procedure: The data are averages of 3-4 determinations each carried out in triplicate. The assay system contained 10 mM PIPES-Tris (pH 6.8), 2 mM each of ATP and MgCl2 with or without 10 mM KCl and about […] in a final volume of 1 mL. Both blank and experimental tubes with or without CPP-1 at different concentrations were preincubated with otherwise complete assay mixture at 37° C. for 10 min before initiating the reaction with the substrate ATP. K^+-stimulated activity referred to as H^+,K^+-ATPase activity, was calculated as the difference between the activity in presence of Mg^2+ plus K^+ and the basal activity (Mg^2+-ATPase) in presence of Mg2^+ alone. The specific activity of H^+,K^+-ATPase in control sets was in the range of 40-50 μmole Pi/mg protein/h.
The effect of CPP-1 on gastric H^+K^+-ATPase was investigated. Isolation of pig gastric mucosal membranes, rich in H^+,K^+-ATPase activity, was carried out by density gradient centrifugation technique (Ray, 1978). The enzyme assay system contained 10 mM PIPES-Tris (pH 6.8), 2 mM each of ATP and MgCl with or without 10 mM KCl and about […] in a final volume of 1 mL. Both blank and experimental tubes with or without CPP-1 at different concentrations were preincubated with otherwise complete assay mixture at 37° C. for 10 min before initiating the reaction with the substrate ATP. After appropriate time of incubation with ATP at 37° C., the reaction was terminated with the addition of 1 mL of ice-cold TCA (14%, w/v). The liberated inorganic phosphate (Pi) was estimated essentially by the method of Sanui (1974). K^+-stimulated activity referred to as H^+,K^+-ATPase activity, was calculated as the difference between the activity in presence of Mg^2+ plus K^+ and the basal activity (Mg^2+-ATPase) in presence of Mg^2+ alone. The specific activity of H^+,K^+-ATPase was expressed as micromoles of Pi liberated per hour per milligram protein. The data are averages of 3-4 determinations each carried out in triplicate. The specific activity of H^+,K^+-ATPase in control sets was in the range of 40-50 μmole Pi/mg protein/h.

[4] = system: gastric parietal cell; assay: Basal acid secretion in gastric parietal cell ([14C]-aminopyrine uptake ratio); type: cell-based, rabbit
Procedure: Dose-dependent inhibition of aminopyrine (AP) uptake ratio in parietal cell suspension after CPP-1 treatment was measured.
(§1) Parietal cells (PC) were isolated from New Zealand White rabbits (weighing ^˜2.5 kg) essentially according to Berglindh (1984) and as modified by Mazzeo et al. (1988). The PC preparations were nearly 90% pure and viable. The effect of CPP-1 on basal and histamine stimulated acid secretion in parietal cells was examined as follows. The PC suspension was incubated for 10 min at 37° C. with gentle stirring and continuous slow top gassing with oxygen. The [^14C]-aminopyrine (115 mCi/mmole) was added to the suspension at […], and incubation was continued for another 10 min. One-milliliter aliquot of PC (^˜5×10^6 cells) was added to various concentrations of CPP-1 in the presence and the absence of histamine (0.1 mM) and incubated for 20 min at 37° C. with slow shaking and oxygen top gassing. At the end of the incubation, the PC suspensions were centrifuged, supernatant carefully aspired off and the pellets solubilized in scintillation fluid containing Triton X-100. The resulting solution was counted in a liquid scintillation counter. The aminopyrine accumulation was determined as the ratio of intra- to extracellular aminopyrine according to Mazzeo et al. (1988).

[5] = system: gastric parietal cell; assay: Histamine-stimulated acid secretion in gastric parietal cell ([14C]-aminopyrine uptake ratio); type: cell-based, rabbit; details: histamine 0.1 mM
Procedure: Dose-dependent inhibition of histamine-stimulated aminopyrine (AP) uptake ratio in parietal cell suspension after CPP-1 treatment was measured.
as §1

Compound: O=c1cc(-c2ccccc2)oc2cc(OCCCCCCN3CCCCC3)cc(O)c12 [CPP-1, 5-Hydroxy-2-phenyl-7-(6-piperidin-1-yl-hexyloxy)-chromen-4-one]
- MIC50 ([1]; 72 h): ~3.12 µg/mL (≈ 7.41 µM)
- MIC ([1]; 72 h, panel of 6 clinical isolates and 4 standard strains, read-out: MIC Range): 3.12 to 25 µg/mL (≈ 7.41 to 59.3 µM)
- MIC50 [1]: 3.12 µg/mL (≈ 7.41 µM)
- MIC ([1]; clinical strain HP001, read-out: MIC): 6.25 µg/mL (≈ 14.8 µM)
- MIC ([1]; clinical strain HP002, read-out: MIC): 6.25 µg/mL (≈ 14.8 µM)
- MIC ([1]; clinical strain HP003, read-out: MIC): < 3.12 µg/mL
- MIC ([1]; clinical strain HP004, read-out: MIC): < 3.12 µg/mL
- MIC ([1]; clinical strain HP005, read-out: MIC): < 3.12 µg/mL
- MIC ([1]; clinical strain HP006, read-out: MIC): < 3.12 µg/mL
- MIC ([1]; standard strain 43504, read-out: MIC): 6.25 µg/mL (≈ 14.8 µM)
- MIC ([1]; standard strain 43629, read-out: MIC): 25 µg/mL (≈ 59.3 µM)
- MIC ([1]; standard strain 49503, read-out: MIC): 6.25 µg/mL (≈ 14.8 µM)
- MIC ([1]; standard strain 700392, read-out: MIC): 3.12 µg/mL (≈ 7.41 µM)
- decrease in cell count within 36 h ([2]; ATCC 43504, 0.5×MIC (3.125 μg/mL)): f-log decrease in cell count
- time to complete killing ([2]; ATCC 43504, 1×MIC (6.25 μg/mL)): ≤ 36 h
- time at which killing/inhibition became evident ([2]; HP001, biphasic culture): ≤ 6 h
- killing at MIC dose (1×MIC) ([2]; HP001, up to 36 h): not high enough to produce total bactericidal activity
- IC50 [3]: 23.7 µM
- Percent inhibition of H^+, K^+-ATPase activity ([3]; 1 mg/assay (so in the source)): 20%
- Percent inhibition of H^+, K^+-ATPase activity ([3]; 5 mg/assay (so in the source)): 30%
- inhibition of H^+,K^+-ATPase ([3]; dose range of 1-10 μg/assay): 10-50%
- IC50 ([4]; Oryctolagus cuniculus, rabbit gastric parietal cell, aminopyrine uptake ratio): ~5 µg/mL
- fold less potent than omeprazole in inhibiting basal acid secretion ([4]; parietal cells): 2-3 fold
- potency relative to cimetidine, basal acid secretion ([4]; parietal cells): much more potent than cimetidine
- IC50 ([5]; Oryctolagus cuniculus, rabbit gastric parietal cell): ~15 µg/mL
- activity relative to cimetidine, histamine-stimulated secretion [5]: more active than cimetidine
- fold less potent than omeprazole in inhibiting histamine-stimulated secretion [5]: about 5 fold
